Patent US9301942B2, “Use of icaritin for the preparation of composition for treating cancer” (priority 2013, dated 2016)

Assays:
[1] = tested on: patients suffering from advanced solid tumors; experiment: Phase Ib fixed-dose study, (serious) adverse events; format: in vivo, humans
Method: (§1) 1.1 Phase 1a: Dose-escalating study with patients suffering from advanced breast cancer. Cohorts of 3-6 patients received one dose, and 6 planned doses of 50, 100, 200, 400, 800, 1600 mg/day were orally administered to the patients over at least a 28-day cycle. 1.2 Phase 1b: Fixed doses of Icaritin with 600 mg and 800 mg BID (Bis in diem) were administered to patients suffering from advanced solid tumors for at least a 28 day cycle. 2. Major Inclusion Criteria
(§2) Phase Ib: Advanced cancer patients without standard treatment, especially HCC patients with Child-Pugh Class A or B liver function, were selected.
(§3) Phase Ib: Patients with the following conditions were excluded: ECOG score≧2, ANC≦1500 cells/μL, platelet≦80,000 cells/μL, Hb≦9.0 g/dL, bilirubin>1.5×ULN, AST or ALT>5×ULN, or albumin<2.8 g/dL.
(§4) The patients with the following conditions were also excluded: prior systemic chemotherapy, chemoembolization, percutaneous ethanol injection, or surgery for HCC<30 days.

[2] = tested on: patients suffering from advanced breast cancer; experiment: Phase Ia dose-escalating study, tumor assessment every 28 days; format: in vivo, humans
Method: (§5) The clinical trial includes two phases: Phase I aims to seek the maximum tolerated dose in the patients. Phase II aims to obtain the administration dosage to the patient treatments.
as §1
(§6) Phase Ia: Females of age≧18 years old and ≦65 years old, suffering from advanced breast cancer which was not responsive to previous standard treatments, were selected based on Eastern Cooperative Oncology Group (ECOG) score≦1.
Tumor assessment was performed every 28 days. […] Further, 1 patient completed 9 cycles.

[3] = tested on: patients suffering from advanced breast cancer; experiment: Phase Ia dose-escalating study, adverse events; format: in vivo; conditions: up to 1600 mg/d
From the text: “Maximum Tolerated Dose (MTD)” means the highest dose of a radiological or pharmacological treatment that will produce the desired effect without unacceptable toxicity. In the present invention, MTD is one dose level below the cohort in which 2 patients experienced a drug-related dose limited toxicity in cycle 1.
as §5, §1, §6

[4] = tested on: HCC patients; experiment: Phase Ib efficacy and survival of HCC patients; format: in vivo, humans
From the text: “CR” means a complete response was achieved after treatment, that is, all signs of cancer in the patient disappeared in response to the treatment.
“SD” means a stable disease state was seen, that is, at the end of the treatment, the disease state of the patient was little changed from pre-treatment conditions.
“OS” means overall survival days of patients. Overall survival is an indication of the proportion of people within a group who are expected to be alive after a specified time, taking into account death due to any cause, both related and unrelated to the cancer in question.
“TTP” means time to progression in the patients, that is, the length of time from the date of diagnosis or the start of treatment for a disease until the disease starts to get worse or spread to other parts of the body. In a clinical trial, measuring the time to progression is one way to see how well a new treatment works.
as §1, §2, §3, §4

[5] = Phase Ia pharmacokinetics, plasma concentration before or after meal; format: in vivo, humans; conditions: for half-life: female, human, plasma, oral
Method: as §1

[6] = 600 mg bid (n = 12), based on evaluable patients, assessment every 2 cycles
[7] = 800 mg bid (n = 5), based on evaluable patients, assessment every 2 cycles

With COc1ccc(-c2oc3c(CC=C(C)C)c(O)cc(O)c3c(=O)c2O)cc1 [Icaritin] the “G2 drug-related adverse events” value ([1]; 600 mg and 800 mg BID) was “no G2 drug-related adverse events was observed”, the “Serious adverse event Cardiac sudden death, No” value ([1]; dose 600) was 1 and the “Serious adverse event Cardiac sudden death, outcomes” value ([1]; dose 600) was “death”. The “Serious adverse event Cardiac sudden death, relationship” value ([1]; dose 600) was “Unlikely related”, the “Serious adverse event Dyspnea, No” value ([1]; dose 600) was 2 and the “Serious adverse event Dyspnea, outcomes” value ([1]; dose 600) was “Death”. For the same compound, the “Serious adverse event Dyspnea, relationship” value ([1]; dose 600) was “Not related”, the “Serious adverse event Liver abscess, No” value ([1]; dose 600) was 1 and the “Serious adverse event Liver abscess, outcomes” value ([1]; dose 600) was “unresolved”. The “Serious adverse event Liver abscess, relationship” value ([1]; dose 600) was “Not related”, the “Serious adverse event epilepsy, No” value ([1]; dose 600) was 1 and the “Serious adverse event epilepsy, outcomes” value ([1]; dose 600) was “unresolved”. For the same compound, the “Serious adverse event epilepsy, relationship” value ([1]; dose 600) was “Not related”, the “Serious adverse event GI bleeding, No” value ([1]; dose 600/800) was 2 and the “Serious adverse event GI bleeding, outcomes” value ([1]; dose 600/800) was “resolved/death”. The “Serious adverse event GI bleeding, relationship” value ([1]; dose 600/800) was “Not related”, the “Serious adverse event Sepsis, No” value ([1]; dose 800) was 1 and the “Serious adverse event Sepsis, outcomes” value ([1]; dose 800) was “resolved”. For the same compound, the “Serious adverse event Sepsis, relationship” value ([1]; dose 800) was “Not related”, the “Serious adverse effect of pneumonia, relationship to drug” value ([1]; only one observed during study) was “not considered drug-related” and the “Tumor response (CR or PR)” value ([2]; Phase Ia, 50-1600 mg/day oral, assessment every 28 days) was “No CR or PR was observed”. For the same compound, the “Anti-tumor effect in advanced breast cancer” value ([2]; overall conclusion) was “potential anti-tumor effect”, the “Tolerability in patients with advanced malignancies” value [3] was “well tolerated” and the Dose tolerated toxicity ([3]; this phase of clinical trial) was “no dose tolerated toxicity was found”. The “Best response PD, patients (%)” value [4, 6] was 4 (40%) patients (%), the “Best response PR, patients (%)” value [4, 6] was 1 (10%) patients (%) and the “Best response SD, patients (%)” value [4, 6] was 5 (50%) patients (%). For the same compound, the “Best response PD, patients (%)” value [4, 7] was 3 (60%) patients (%), the “Best response PR, patients” value [4, 7] was 0 patients and the “Best response SD, patients” value [4, 7] was 0 patients. For the same compound, the “Median OS of HCC patients” value ([4]; Phase Ib, 17 patients analyzed, 95% CI:32-265, FIG. 7) was 113 days, the Median TTP of HCC patients ([4]; Phase Ib, FIG. 6) was 112 days and the “AFP of HCC patient, as treatment progressed” value ([4]; after decrease under treatment, FIG. 5) was 3.53 ng/mL. For the same compound, the “Abdominal lymph nodes, B-mode ultrasound image of an HCC patient” value ([4]; after eight months of treatment, FIG. 4a/4b) was “complete disappearance of abdominal lymph nodes”, the “AFP of HCC patient, start value” ([4]; before the decrease, FIG. 5) was 5216 ng/mL and the “Efficacy in hepatocellular cancer” value ([4]; overall conclusion) was “promising efficacy”. For the same compound, the “Plasma concentration after a meal versus fasting” value ([5]; 800 mg once daily, FIG. 1) was “higher”, the Absorption saturation ([5]; 1600 mg) was “absorption saturation occurs” and the “Plasma concentration after a meal versus fasting” value ([5]; 1600 mg once daily, FIG. 2) was “higher”. The “Plasma concentration versus dose” value ([5]; 400, 800 and 1600 mg once daily after meal, FIG. 3) was “increases with dose but not in a completely linear pattern”, the “Bioavailability, post-meal (fed) dosing versus fasting dosing” value ([5]; 800 and 1600 mg) was “better bioavailability in fed dosing” and the half-life ([5]; 800 mg Icaritin BID) was 4.8 ± 2.7 h. The half-life ([5]; 1600 mg Icaritin BID) was 4.5 ± 0.8 h and the “Maximum plasma concentration at 800 mg compared with 1600 mg” value ([5]; once daily after meal, FIG. 3) was “close to the plasma concentration of 1600 mg Icaritin”.
